Earlier results, collected in PMC9080292, “Correction: Rational design of a peptide capture agent for CXCL8 based on a model of the CXCL8:CXCR1 complex” (RSC Advances, 2018).
Square brackets hold non-standard residues; d marks the D form. Ends that are not written are not given here. Ahx = NCCCCCC(=O)O

Columns and labels:
[1] = synthesized peptide, result in words; ref Helmer et al., RSC Adv., 2015, 5, 25657–25668; cited from earlier work
CXCL8 = biological target: T1, CXCL8 (Homo sapiens, UniProt P10145); conditions: original publication; fluorescence anisotropy; now attributed to the peptide ending with glutamic acid; ref Helmer et al., RSC Adv., 2015, 5, 25657–25668; read-out: affinity (reported high affinity); cited from earlier work
T1 sequence (P10145 21-99): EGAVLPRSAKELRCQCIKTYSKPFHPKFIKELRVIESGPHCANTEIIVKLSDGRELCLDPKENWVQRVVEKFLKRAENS
Description: This was confirmed by high resolution mass spectrometry. […] We conclude that all experiments were performed with the peptid ...

Substance | structure by CD-spectroscopy [1] | Kd (CXCL8) [nM]
AKWRMVLRI[Ahx]ADTLMRTE [IL8-RP-Loops, IL8 capture peptide; actually synthesized peptide with C-terminal glutamic acid] | a helical structure | –
AKWRMVLRI–Ahx–ADTLMRTE (AKWRMVLRI[Ahx]ADTLMRTE) [IL8-RP-Loops, IL8 capture peptide; actually synthesized peptide with C-terminal glutamic acid] | – | 500 ± 300
